Measured values reported in US7786107B2, “Modulators of muscarinic receptors” (Vertex Pharmaceuticals Incorporated, priority 2006, dated 2010).

Legend:
M4 muscarinic receptor = target: T1, M4 muscarinic receptor (Homo sapiens, UniProt P08173); experiment: Functional mobilization of intracellular calcium (FLIPR) in CHO cells expressing M4; format: cell-based; details: for EC50: CHO cells expressing M4, calcium mobilization; for Emax: CHO, 100% efficacy is the maximum response obtained with the Carbachol control
T1 construct: expressed in transfected cells; host or cells: CHO
T1 sequence (P08173 1-479): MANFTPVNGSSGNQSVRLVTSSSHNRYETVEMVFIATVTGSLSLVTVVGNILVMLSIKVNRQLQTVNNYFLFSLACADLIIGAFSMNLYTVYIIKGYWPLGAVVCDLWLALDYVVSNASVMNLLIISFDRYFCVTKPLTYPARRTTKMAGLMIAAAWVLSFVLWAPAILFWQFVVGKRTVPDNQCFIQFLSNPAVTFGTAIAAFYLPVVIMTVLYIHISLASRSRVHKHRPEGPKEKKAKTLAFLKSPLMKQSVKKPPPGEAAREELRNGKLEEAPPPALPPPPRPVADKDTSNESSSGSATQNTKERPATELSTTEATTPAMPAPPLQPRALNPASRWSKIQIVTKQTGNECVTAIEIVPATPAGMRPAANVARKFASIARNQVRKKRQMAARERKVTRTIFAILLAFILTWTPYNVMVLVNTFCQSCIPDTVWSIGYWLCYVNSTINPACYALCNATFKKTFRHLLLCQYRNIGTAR
Protocol: (§1) Functional Mobilization of Intracellular Calcium to Determine Muscarinic Receptor Activity:
(§2) CHO cells expressing muscarinic receptors (M1 to M5) are grown as monolayers in tissue culture flasks at 37° C. in a humidified atmosphere containing 5% CO2 and passaged every 3-5 days. The growth media is Dulbecco's modified eagles medium (DMEM, Gibco Cat#12430-054), containing 25 mM Hepes and supplemented with Fetal Bovine Serum (Hyclone, Cat#SH30071.03), 0.1 mM of MEM non-essential amino acids (GIBCO, Cat#11140-050), 1 mM MEM Sodium Pyruvate (GIBCO Cat#11360-070) and 100 units/ml of Penicillin G and 100 μg/ml of Streptomycin (GIBCO Cat#15140-122). The recombinant muscarinic receptor cell lines are grown under antibiotic pressure with media containing 25 μg/ml zeocin and 500 μg/ml G418 (MI-CHO), 4 μg/ml puromycin, 50 μg/ml zeocin and 2.5 μg/ml blasticidin (M2 and M4-CHO) or 50 μg/ml zeocin and 4 μg/ml puromycin (M3 and M5-CHO).
(§3) Cells are harvested at 80-90% confluence using Versene (GIBCO Cat#15040-066), collected by centrifugation and seeded 18-24 hours prior to running the calcium assay at a density of 5,000-10,000 cells/well in […], clear-bottomed 384-well plates (BD Biocoat, poly-D-lysine, Cat#356663). The day of the experiment, the cells are washed with a plate washer (Bioteck Instruments, ELX 405) using bath 1 buffer (140-mM NaCl, 4.5-mM KCl, 2-mM CaCl2, 1-mM MgCl2, 10-mM Hepes-Na, 10-mM Glucose, pH 7.4, with NaOH) containing 1 mM Probenecid. Next, the calcium dye Fluo-3 (25 μl well of Fluo-3 AM at 4 μM, Molecular Probes F-1241, in Bath 1 buffer containing 1 mM Probenecid) is added to the 25 μl of Bath 1 remaining in each well after the plate wash and the dye is loaded at 37° C. in the tissue culture incubator for 60-90 min. The fluorescent dye is removed using the plate washer with Bath 1 containing 1 mM Probenecid, leaving 25 μl/well of this solution after the wash. Alternatively, cells can be loaded with the calcium indicator from Molecular Devices (Calcium 3 Assay Reagents, Cat #R7181) adding 5 μl of a 5× solution dye in Bath 1 containing 1 mM Probenecid (10 ml per dye flask cat#R7182 to generate a solution 20×) to 20 μl of the same buffer. After loading for 60 min, the experiment can be run without having to remove the dye.
(§4) Compounds are prepared at a 2× fold concentration in a 96-well plate (round bottom, Costar Corning cat#3656), by reconstituting the pre-spotted compounds in bath 1 containing 1 mM probenecid. The final concentration DMSO is 0.5%, and the amount of DMSO is normalized across the assay plate. To determine an agonist action of the compounds on muscarinic receptors, the reconstituted compounds are added (25 μl compound/well) to the cell assay plate (containing 25 μl/well) using the multi-channel robotic system of the FLIPR 3 Instrument (Molecular Devices, Sunnyvale, Calif.). To determine a functional inhibitory action of the compounds on muscarinic receptors, the reconstituted compounds are added (25 μl compound/well) to the assay plate and pre-incubated for 15 min prior to adding 25 μl of Carbachol at 3× the EC80 for each muscarinic subtype. Alternatively, the compounds can be co-applied simultaneously with the agonist. In both assay modes, the fluorescence is recorded for 60 sec (excitation wavelength is […] and emission wavelength 540 nm) using the FLIPR 3 instrument.
(§5) The potency, efficacy and selectivity of the muscarinic compounds were evaluated by screening the compound activity across the whole family (M1 to M5 cells). Compounds were also screened for activity on other proteins such as other GPCRs and ion channels to determine selectivity on M4 receptors.
(§6) Examples of activities and efficacies of the muscarinic compounds of formulae (I, I-A, and I-B) on modulating M1 and M4 receptors are shown below in Table 4. […]

M1 muscarinic receptor = target: T2, M1 muscarinic receptor (Homo sapiens, UniProt P11229); experiment: Functional mobilization of intracellular calcium (FLIPR) in CHO cells expressing M1; format: cell-based; details: for EC50: CHO cells expressing M1, calcium mobilization; for Emax: CHO, 100% efficacy is the maximum response obtained with the Carbachol control
T2 construct: expressed in transfected cells; host or cells: CHO
T2 sequence (P11229 1-460): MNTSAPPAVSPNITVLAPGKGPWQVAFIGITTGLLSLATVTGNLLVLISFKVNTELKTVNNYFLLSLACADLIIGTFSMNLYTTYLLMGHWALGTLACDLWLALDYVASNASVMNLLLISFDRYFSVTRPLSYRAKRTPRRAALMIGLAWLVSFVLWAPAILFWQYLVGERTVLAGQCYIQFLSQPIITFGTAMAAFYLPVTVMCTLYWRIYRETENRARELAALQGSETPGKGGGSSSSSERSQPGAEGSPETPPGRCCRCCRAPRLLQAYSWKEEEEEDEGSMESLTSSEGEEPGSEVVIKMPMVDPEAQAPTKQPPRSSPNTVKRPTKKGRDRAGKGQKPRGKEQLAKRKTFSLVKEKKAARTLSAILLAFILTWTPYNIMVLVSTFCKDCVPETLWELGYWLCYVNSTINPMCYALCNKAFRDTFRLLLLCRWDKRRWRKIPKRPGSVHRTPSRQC
Protocol: as §1, §2, §3, §4, §5, §6

With `CN(C)C(=O)N1CCCC2(CCN(CC3CCCCC3)CC2)c2ccccc21` [Compound 27] the EC50 (M4 muscarinic receptor) was over 10 µM, the Emax (M4 muscarinic receptor) was under 25% and the EC50 (M1 muscarinic receptor) was over 10 µM. The Emax (M1 muscarinic receptor) was under 25%.
For `CN(C)C(=O)N1CCCC2(CCN(CC3CC4C=CC3C4)CC2)c2ccccc21` (stereo not shown) [Compound 15], the EC50 (M4 muscarinic receptor) was under 2 µM, the Emax (M4 muscarinic receptor) was 25 to 100% and the EC50 (M1 muscarinic receptor) was over 10 µM. The Emax (M1 muscarinic receptor) was under 25%.
`CCOC(=O)N1CCC(N2CCC3(CCCN(C(C)=O)c4ccccc43)CC2)CC1` [Compound 14] showed an EC50 (M4 muscarinic receptor) of under 2 µM, an Emax (M4 muscarinic receptor) of 25 to 100% and an EC50 (M1 muscarinic receptor) of under 2 µM. For the same compound, the Emax (M1 muscarinic receptor) was 25 to 100%.
`NC(=O)N1CCCC2(CCN(CC3CCCCC3)CC2)c2ccccc21` [Compound 20] gave an EC50 (M4 muscarinic receptor) of 2 to 10 µM, an Emax (M4 muscarinic receptor) of under 25% and an EC50 (M1 muscarinic receptor) of over 10 µM. The Emax (M1 muscarinic receptor) was under 25%.
Work on `CN(C)C(=O)N1CCCC2(CCN(CCC(C)(C)C)CC2)c2ccccc21` [Compound 31] yielded an EC50 (M4 muscarinic receptor) of under 2 µM, an Emax (M4 muscarinic receptor) of 25 to 100% and an EC50 (M1 muscarinic receptor) of over 10 µM. For the same compound, the Emax (M1 muscarinic receptor) was under 25%.
`CN(C)C(=O)N1CCCC2(CCN(C3C[C@@H]4CC[C@@H]3C4)CC2)c2ccccc21` (stereo partly shown) [Compound 33] was tested, and the EC50 (M4 muscarinic receptor) was over 10 µM, the Emax (M4 muscarinic receptor) was under 25% and the EC50 (M1 muscarinic receptor) was over 10 µM. For the same compound, the Emax (M1 muscarinic receptor) was under 25%.
`O=C1CCC2(CCN(C3CCCCCC3)CC2)c2ccccc2N1` [Compound 24, 1′-cycloheptyl-3,4-dihydrospiro[benzo[b]azepine-5,4′-piperidin]-2(1H)-one] gave an EC50 (M4 muscarinic receptor) of under 2 µM, an Emax (M4 muscarinic receptor) of 25 to 100% and an EC50 (M1 muscarinic receptor) of under 2 µM. The Emax (M1 muscarinic receptor) was 25 to 100%.
